Test results as given in PMC7176092, “Development of the first in vivo GPR17 ligand through an iterative drug discovery pipeline: A novel disease-modifying strategy for multiple sclerosis” (PLoS ONE, 2020).
Values joined by “and” are separate entries in the source; they are usually repeats but may differ in a detail not shown here. Identical values can stand only once. Like-named read-outs stand apart in the source and are kept apart here. Marks after values point to notes of the source that are not given here.

Key:
[1] = biological target: T1, M3 (Homo sapiens, UniProt P20309); assay: Binding assay M3; details: 100 nM
T1 construct: Eurofins Cerep (external service)
T1 sequence (P20309 whole entry): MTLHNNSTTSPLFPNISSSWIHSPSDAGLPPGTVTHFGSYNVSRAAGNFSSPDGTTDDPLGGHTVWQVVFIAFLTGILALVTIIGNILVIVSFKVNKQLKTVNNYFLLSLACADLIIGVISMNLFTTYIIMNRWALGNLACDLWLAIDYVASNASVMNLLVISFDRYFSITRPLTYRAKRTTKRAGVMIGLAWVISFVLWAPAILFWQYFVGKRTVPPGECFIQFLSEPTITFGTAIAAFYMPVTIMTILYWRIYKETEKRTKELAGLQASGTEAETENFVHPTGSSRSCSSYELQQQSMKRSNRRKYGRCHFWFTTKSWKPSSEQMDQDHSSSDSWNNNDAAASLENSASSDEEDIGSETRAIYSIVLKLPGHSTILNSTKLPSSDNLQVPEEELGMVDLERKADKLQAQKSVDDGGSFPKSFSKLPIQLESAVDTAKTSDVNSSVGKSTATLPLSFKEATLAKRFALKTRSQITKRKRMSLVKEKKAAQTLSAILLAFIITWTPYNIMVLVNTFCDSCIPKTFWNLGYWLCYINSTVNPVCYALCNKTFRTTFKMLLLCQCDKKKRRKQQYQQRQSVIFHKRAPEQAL

[2] = biological target: T2, ADR1A (Homo sapiens, UniProt P35348); assay: Binding assay ADR1A; details: 100 nM
T2 construct: Eurofins Cerep (external service)
T2 sequence (P35348 1-466): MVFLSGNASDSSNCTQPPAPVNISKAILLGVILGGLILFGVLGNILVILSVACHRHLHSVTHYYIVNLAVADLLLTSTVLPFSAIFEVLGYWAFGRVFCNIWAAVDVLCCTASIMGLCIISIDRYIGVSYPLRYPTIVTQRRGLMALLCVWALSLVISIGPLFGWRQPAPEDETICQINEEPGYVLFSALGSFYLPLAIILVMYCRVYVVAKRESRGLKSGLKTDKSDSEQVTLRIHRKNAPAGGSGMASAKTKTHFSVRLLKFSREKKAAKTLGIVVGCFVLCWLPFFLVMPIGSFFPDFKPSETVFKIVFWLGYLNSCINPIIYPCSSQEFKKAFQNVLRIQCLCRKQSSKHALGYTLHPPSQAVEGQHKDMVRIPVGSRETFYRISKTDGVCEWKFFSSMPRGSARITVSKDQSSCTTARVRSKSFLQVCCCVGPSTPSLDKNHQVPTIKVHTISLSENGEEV

[3] = biological target: T3, M4 (Homo sapiens, UniProt P08173); assay: Binding assay M4; details: 100 nM
T3 construct: Eurofins Cerep (external service)
T3 sequence (P08173 1-479): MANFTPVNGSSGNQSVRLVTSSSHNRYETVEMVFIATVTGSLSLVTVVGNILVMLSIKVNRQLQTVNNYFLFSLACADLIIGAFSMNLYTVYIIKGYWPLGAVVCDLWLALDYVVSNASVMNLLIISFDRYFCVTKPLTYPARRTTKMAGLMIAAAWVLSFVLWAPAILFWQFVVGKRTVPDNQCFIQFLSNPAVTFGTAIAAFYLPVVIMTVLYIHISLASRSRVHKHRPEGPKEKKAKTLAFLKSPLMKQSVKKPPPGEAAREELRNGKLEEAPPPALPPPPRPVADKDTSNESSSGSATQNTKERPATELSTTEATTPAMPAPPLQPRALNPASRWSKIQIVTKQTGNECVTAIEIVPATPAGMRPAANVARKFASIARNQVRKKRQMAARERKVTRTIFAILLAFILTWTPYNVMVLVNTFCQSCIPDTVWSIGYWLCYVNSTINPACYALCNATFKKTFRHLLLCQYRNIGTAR

[4] = test system: 40 human receptors; assay: Selectivity profile on class-A GPCRs (Eurofins Cerep); details: 0.1 μM; binding and cellular assays
Description: A subset of GPCRs with a relevant role in demyelination/remyelination was also included in this analysis.

[5] = biological target: T4, ADR2 (Homo sapiens, UniProt P07550); assay: Binding assay ADR2 (reference ICI 118551); details: 100 nM
T4 construct: Eurofins Cerep (external service)
T4 sequence (P07550 whole entry): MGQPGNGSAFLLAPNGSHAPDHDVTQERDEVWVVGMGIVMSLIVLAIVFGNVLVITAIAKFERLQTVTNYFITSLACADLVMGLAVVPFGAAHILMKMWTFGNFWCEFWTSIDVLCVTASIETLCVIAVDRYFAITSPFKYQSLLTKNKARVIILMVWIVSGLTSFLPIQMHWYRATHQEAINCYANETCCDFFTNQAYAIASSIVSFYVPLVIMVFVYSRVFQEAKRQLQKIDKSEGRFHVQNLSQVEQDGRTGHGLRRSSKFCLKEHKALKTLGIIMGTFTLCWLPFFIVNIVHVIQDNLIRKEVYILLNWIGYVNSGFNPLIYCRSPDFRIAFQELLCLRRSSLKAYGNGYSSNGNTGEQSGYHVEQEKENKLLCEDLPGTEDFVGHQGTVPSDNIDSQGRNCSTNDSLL

[6] = biological target: T5, ADR1B (Homo sapiens, UniProt P35368); assay: Binding assay ADR1B; details: 100 nM
T5 construct: Eurofins Cerep (external service)
T5 sequence (P35368 1-520): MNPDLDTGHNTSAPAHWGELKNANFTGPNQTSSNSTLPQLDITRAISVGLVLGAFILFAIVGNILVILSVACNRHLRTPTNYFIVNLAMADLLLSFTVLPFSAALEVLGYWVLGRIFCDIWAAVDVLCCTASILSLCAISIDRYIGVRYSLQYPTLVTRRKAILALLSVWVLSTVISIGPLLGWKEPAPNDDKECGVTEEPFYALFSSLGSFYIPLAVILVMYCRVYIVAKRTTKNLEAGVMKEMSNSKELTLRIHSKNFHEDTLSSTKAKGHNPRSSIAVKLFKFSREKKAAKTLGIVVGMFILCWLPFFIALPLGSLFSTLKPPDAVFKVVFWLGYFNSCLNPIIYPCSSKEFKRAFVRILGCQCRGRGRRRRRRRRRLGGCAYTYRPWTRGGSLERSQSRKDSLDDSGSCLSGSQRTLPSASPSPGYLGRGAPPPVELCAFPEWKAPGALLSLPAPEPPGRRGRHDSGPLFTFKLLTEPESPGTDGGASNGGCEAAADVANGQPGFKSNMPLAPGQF

[7] = biological target: T6, human GPR17 (Homo sapiens, UniProt Q13304); assay: [35S]GTPγS binding assay; format: biochemical
T6 construct: HA; expressed in transfected cells
T6 sequence (Q13304 29-367): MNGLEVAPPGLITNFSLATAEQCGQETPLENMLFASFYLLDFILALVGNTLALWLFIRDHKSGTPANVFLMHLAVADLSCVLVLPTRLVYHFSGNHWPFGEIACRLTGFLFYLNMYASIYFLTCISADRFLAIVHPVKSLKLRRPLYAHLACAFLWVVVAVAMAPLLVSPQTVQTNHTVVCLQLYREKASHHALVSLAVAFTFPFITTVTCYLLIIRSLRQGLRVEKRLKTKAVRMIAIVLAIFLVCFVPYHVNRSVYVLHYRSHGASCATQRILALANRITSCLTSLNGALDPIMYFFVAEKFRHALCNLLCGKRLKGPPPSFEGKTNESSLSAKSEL
Experimental: [^35S]GTPγS binding assays were carried out as previously described. Briefly, control and astrocytoma 1321N1 cells stably transfected with human pcDNA3.1 (control cells) and human HA-tag GPR17 were homogenized in 5 mM Tris/HCl and 2 mM EDTA (pH 7.4) and centrifuged at 48,000g for 15 min at 4°C. The resulting pellets were washed in 50 mM Tris/HCl and 10 mM MgCl2 (pH 7.4). After protein dosage, aliquots of cell membranes were incubated with increasing concentrations of each investigated ligand (1 pM–10 μM) and GTPγS binding to activated G-proteins was quantified as previously described. Compounds were purchased from two external providers, i.e., Ambinter (Ambinter c/o Greenpharma, Orléans, France http://www.ambinter.com/) and Asinex (http://www.asinex.com/).
For analysis and graphic presentation of [^35S]GTPγS binding data, a nonlinear multipurpose curve fitting computer program (Graph-Pad Prism) was used. All data are presented as the mean ± SEM of three different experiments.
The selected 15 molecules were evaluated in our in-house [^35S]GTPγS functional assay in membranes from cells transfected with human GPR17. […] Moreover, this assay has been already successfully used in the past to measure the ability of both endogenous and novel synthetic compounds to activate GPR17 [25, 31]. All tested molecules were able to potently activate GPR17 with nanomolar/sub-nanomolar affinities. Concentration-response curves obtained for each selected compound are reported in S4 Fig.

[8] = mean of 2, read-out: % Of control specific binding, Mean
[9] = read-out: % Inhibition of control specific binding
[10] = single replicates 1 and 2, 0.1 µM
[11] = single replicates 1 and 2, read-out: % Of control specific binding

Question: For `Cc1ccc(-c2nnc(SCC(=O)Nc3nccs3)[nH]2)cc1` [Compound 9], which remaining activity at 0.1 µM [1, 8] is on record?
Answer: 106%

Question: And the inhibition at 0.1 µM [1, 9]?
Answer: -6%

Question: What about the “% Of control specific binding” value [1, 10] of the same compound?
Answer: 110.4%

Question: And the remaining activity at 0.1 µM [1, 11]?
Answer: 101%

Question: What about the remaining activity at 0.1 µM [2, 8] of the same compound?
Answer: 112%

Question: What about the “% Of control specific binding” value [2, 10] of the same compound?
Answer: 108.1%

Question: And the remaining activity at 0.1 µM [2, 11]?
Answer: 117%

Question: And the remaining activity at 0.1 µM [3, 8]?
Answer: 95.4%

Question: What about the inhibition at 0.1 µM [3, 9] of the same compound?
Answer: 5%

Question: And the “% Of control specific binding” value [3, 10]?
Answer: 95.1%

Question: What about the remaining activity at 0.1 µM [3, 11] of the same compound?
Answer: 95.7%

Question: What about the “Pharmacological activity on the tested GPCRs” value [4] of the same compound?
Answer: no significant pharmacological activity

Question: What about the remaining activity at 0.1 µM [5, 8] of the same compound?
Answer: 102%

Question: What about the inhibition at 0.1 µM [5, 9] of the same compound?
Answer: -2%

Question: What about the “% Of control specific binding” value [5, 10] of the same compound?
Answer: 108.1%

Question: What about the remaining activity at 0.1 µM [5, 11] of the same compound?
Answer: 95.8%

Question: What about the remaining activity at 0.1 µM [6, 8] of the same compound?
Answer: 89.8%

Question: And the inhibition at 0.1 µM [6, 9]?
Answer: 10%

Question: And the “% Of control specific binding” value [6, 10]?
Answer: 100.1% and 79.4%

Question: What about the EC50 ([7]; membranes of 1321N1 cells transfected with human GPR17, mean ± SEM of 3 experiments) of the same compound?
Answer: 0.64 ± 0.12 nM

Question: And the “% Emax (ratio vs Emax of the standard)” value ([7]; standard LTD4 50 nM set to 100% († compounds))?
Answer: 88.5 ^** %

Question: What about the “Emax (% vs basal)” value ([7]; vs basal, mean ± SEM) of the same compound?
Answer: 127.8 ± 3.0%
